Laboratory results: patent US12077503B2, “Substituted cyclic amides and their use as herbicides” (FMC CORPORATION, priority 2015, dated 2024)

Tests used:
Assay type in all cases: in vivo
Kochia (Kochia scoparia) [1] = assay: Test A preemergence; conditions: Preemergence; for Plant response rating, Kochia: 125 g ai/ha, visual injury after approximately 10 d, 0 to 100 scale where 0 is no effect and 100 is complete control; for Kochia plant response rating (0 to 100 scale, 0 is no effect, 100 is complete control): 500 g ai/ha, visual injury approx. 10 d
Method in brief: (§1)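 Treatment is preemergence as a directed soil spray after planting, or postemergence at the one- to two-leaf stage, with test chemical in a non-phytotoxic solvent mixture plus surfactant. Plants stay in the greenhouse about 10 d before visual injury scoring on a 0 to 100 scale versus untreated controls.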

[2] = tested on: barnyardgrass (Echinochloa crus-galli); assay: Test A preemergence; conditions: Preemergence; for Plant response rating, Barnyardgrass: 125 g ai/ha, visual injury after approximately 10 d, 0 to 100 scale where 0 is no effect and 100 is complete control; for Barnyardgrass plant response rating (0 to 100 scale, 0 is no effect, 100 is complete control): 500 g ai/ha, visual injury approx. 10 d
Method in brief: as §1

[3] = tested on: giant foxtail (Setaria faberii); assay: Test A preemergence; conditions: Preemergence; for Plant response rating, Foxtail, Giant: 125 g ai/ha, visual injury after approximately 10 d, 0 to 100 scale where 0 is no effect and 100 is complete control; for Foxtail, Giant plant response rating (0 to 100 scale, 0 is no effect, 100 is complete control): 500 g ai/ha, visual injury approx. 10 d
Method in brief: as §1

[4] = tested on: pigweed (Amaranthus retroflexus); assay: Test A preemergence; conditions: Preemergence; for Plant response rating, Pigweed: 125 g ai/ha, visual injury after approximately 10 d, 0 to 100 scale where 0 is no effect and 100 is complete control; for Pigweed plant response rating (0 to 100 scale, 0 is no effect, 100 is complete control): 500 g ai/ha, visual injury approx. 10 d
[5] = tested on: ragweed (common ragweed, Ambrosia elatior); assay: Test A preemergence; conditions: Preemergence; for Plant response rating, Ragweed: 125 g ai/ha, visual injury after approximately 10 d, 0 to 100 scale where 0 is no effect and 100 is complete control; for Ragweed plant response rating (0 to 100 scale, 0 is no effect, 100 is complete control): 500 g ai/ha, visual injury approx. 10 d
Method in brief: as §1

[6] = tested on: ryegrass, Italian (Italian ryegrass, Lolium multiflorum); assay: Test A preemergence; conditions: Preemergence; for Plant response rating, Ryegrass, Italian: 125 g ai/ha, visual injury after approximately 10 d, 0 to 100 scale where 0 is no effect and 100 is complete control; for Ryegrass, Italian plant response rating (0 to 100 scale, 0 is no effect, 100 is complete control): 500 g ai/ha, visual injury approx. 10 d
Method in brief: as §1

[7] = tested on: Galium (catchweed bedstraw, Galium aparine); assay: Test A postemergence; conditions: for Galium plant response rating: visual injury rating on 0 to 100 scale (0 no effect, 100 complete control), approx. 10 d
Method in brief: as §1

Kochia (Kochia scoparia) [8] = assay: Test A postemergence; conditions: for Kochia plant response rating: visual injury rating on 0 to 100 scale (0 no effect, 100 complete control), approx. 10 d
Method in brief: as §1

[9] = tested on: barnyardgrass (Echinochloa crus-galli); assay: Test A postemergence; conditions: for Barnyardgrass plant response rating: visual injury rating on 0 to 100 scale (0 no effect, 100 complete control), approx. 10 d
Method in brief: as §1

[10] = tested on: blackgrass (Alopecurus myosuroides); assay: Test A postemergence; conditions: for Blackgrass plant response rating: visual injury rating on 0 to 100 scale (0 no effect, 100 complete control), approx. 10 d
Method in brief: as §1

corn (Zea mays) = assay: Test A postemergence; conditions: for Corn plant response rating: visual injury rating on 0 to 100 scale (0 no effect, 100 complete control), approx. 10 d
Method in brief: as §1

[11] = tested on: giant foxtail (Setaria faberii); assay: Test A postemergence; conditions: for Foxtail, Giant plant response rating: visual injury rating on 0 to 100 scale (0 no effect, 100 complete control), approx. 10 d
Method in brief: as §1

[12] = tested on: pigweed (Amaranthus retroflexus); assay: Test A postemergence; conditions: for Pigweed plant response rating: visual injury rating on 0 to 100 scale (0 no effect, 100 complete control), approx. 10 d
Method in brief: as §1

[13] = tested on: ragweed (common ragweed, Ambrosia elatior); assay: Test A postemergence; conditions: for Ragweed plant response rating: visual injury rating on 0 to 100 scale (0 no effect, 100 complete control), approx. 10 d
Method in brief: as §1

[14] = tested on: ryegrass, Italian (Italian ryegrass, Lolium multiflorum); assay: Test A postemergence; conditions: for Ryegrass, Italian plant response rating: visual injury rating on 0 to 100 scale (0 no effect, 100 complete control), approx. 10 d
Method in brief: as §1

[15] = tested on: wheat (Triticum aestivum); assay: Test A postemergence; conditions: for Wheat plant response rating: visual injury rating on 0 to 100 scale (0 no effect, 100 complete control), approx. 10 d
Method in brief: as §1

[16] = tested on: barnyardgrass (Echinochloa crus-galli); assay: Test B flooded paddy test; conditions: Flood, 250 g ai/ha; 0 to 100 scale where 0 is no effect and 100 is complete control; 13 to 15 d
Method in brief: (§2)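 Rating scale 0–100 (visual, vs untreated controls) after a 13–15 d greenhouse period; application to the flood layer, 3 cm above soil and maintained; plants at 2-leaf stage when treated.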

[17] = tested on: ducksalad (Heteranthera limosa); assay: Test B flooded paddy test; conditions: Flood, 250 g ai/ha; 0 to 100 scale where 0 is no effect and 100 is complete control; 13 to 15 d
Method in brief: as §2

rice (Oryra sativa) = assay: Test B flooded paddy test; conditions: Flood, 250 g ai/ha; 0 to 100 scale where 0 is no effect and 100 is complete control; 13 to 15 d
Method in brief: as §2

[18] = tested on: sedge, umbrella (small-flower umbrella sedge, Cyperus difformis); assay: Test B flooded paddy test; conditions: Flood, 250 g ai/ha; 0 to 100 scale where 0 is no effect and 100 is complete control; 13 to 15 d
Method in brief: as §2

[19] = Postemergence, 500 g ai/ha, 0 to 100 scale where 0 is no effect and 100 is complete control
[20] = 125 g ai/ha, postemergence, visual rating after approx. 10 d, 0 to 100 scale (0 no effect, 100 complete control)

| Compound | Plant response rating, Kochia (Kochia (Kochia scoparia) [1]) | Kochia plant response rating (0 to 100 scale, 0 is no effect, 100 is complete control) (Kochia (Kochia scoparia) [1]) | Plant response rating, Barnyardgrass [2] | Barnyardgrass plant response rating (0 to 100 scale, 0 is no effect, 100 is complete control) [2] | Plant response rating, Foxtail, Giant [3] | Foxtail, Giant plant response rating (0 to 100 scale, 0 is no effect, 100 is complete control) [3] | Plant response rating, Pigweed [4] | Pigweed plant response rating (0 to 100 scale, 0 is no effect, 100 is complete control) [4] | Plant response rating, Ragweed [5] | Ragweed plant response rating (0 to 100 scale, 0 is no effect, 100 is complete control) [5] | Plant response rating, Ryegrass, Italian [6] | Ryegrass, Italian plant response rating (0 to 100 scale, 0 is no effect, 100 is complete control) [6] | Plant response rating, Galium [7, 19] | Plant response rating, Kochia (Kochia (Kochia scoparia) [8]; [19]) | Plant response rating, Barnyardgrass [9, 19] | Plant response rating, Blackgrass [10, 19] | Plant response rating, Corn (corn (Zea mays); [19]) | Plant response rating, Foxtail, Giant [11, 19] | Plant response rating, Pigweed [12, 19] | Plant response rating, Ragweed [13, 19] | also measured |
| --- | --- | --- | --- | --- | --- | --- | --- | --- | --- | --- | --- | --- | --- | --- | --- | --- | --- | --- | --- | --- | --- |
| O=C1NCC(c2cc(F)cc(Cl)c2)C1C(=O)Nc1ccc(F)cc1F (stereo not drawn) [Compound 493] | 0 | 20 | 90 | 90 | 90 | 90 | 0 | 0 | 0 | 30 | 0 | 20 | 40 | 20 | 90 | 50 | 70 | 90 | 0 | 20 | Galium plant response rating ([7]; 125 g ai/ha, postemergence): 30; Kochia plant response rating (Kochia (Kochia scoparia) [8]; 125 g ai/ha, postemergence): 0; Barnyardgrass plant response rating ([9]; 125 g ai/ha, postemergence): 90; Blackgrass plant response rating ([10]; 125 g ai/ha, postemergence): 20; Corn plant response rating (corn (Zea mays); 125 g ai/ha, postemergence): 0; Foxtail, Giant plant response rating ([11]; 125 g ai/ha, postemergence): 90; Pigweed plant response rating ([12]; 125 g ai/ha, postemergence): 0; Ragweed plant response rating ([13]; 125 g ai/ha, postemergence): 20; Ryegrass, Italian plant response rating ([14]; 125 g ai/ha, postemergence): 20; Plant response rating, Ryegrass, Italian [14, 19]: 50; Wheat plant response rating ([15]; 125 g ai/ha, postemergence): 0; Plant response rating, Wheat [15, 19]: 30; Plant response rating, Barnyardgrass [16]: 60; Plant response rating, Ducksalad [17]: 80; Plant response rating, Rice (rice (Oryra sativa)): 25; Plant response rating, Sedge, Umbrella [18]: 0 |
| COCc1cccc(C2CNC(=O)C2C(=O)Nc2ccccc2Cl)c1 (stereo not drawn) [Compound 498] | 0 | 0 | 30 | 90 | 40 | 80 | 0 | 0 | 0 | 0 | 0 | 0 | 0 | 0 | 70 | 0 | 0 | 40 | 0 | 0 | Galium plant response rating ([7]; 125 g ai/ha, postemergence): 0; Kochia plant response rating (Kochia (Kochia scoparia) [8]; 125 g ai/ha, postemergence): 0; Barnyardgrass plant response rating ([9]; 125 g ai/ha, postemergence): 30; Blackgrass plant response rating ([10]; 125 g ai/ha, postemergence): 0; Corn plant response rating (corn (Zea mays); 125 g ai/ha, postemergence): 0; Foxtail, Giant plant response rating ([11]; 125 g ai/ha, postemergence): 20; Pigweed plant response rating ([12]; 125 g ai/ha, postemergence): 0; Ragweed plant response rating ([13]; 125 g ai/ha, postemergence): 0; Ryegrass, Italian plant response rating ([14]; 125 g ai/ha, postemergence): 0; Plant response rating, Ryegrass, Italian [14, 19]: 0; Wheat plant response rating ([15]; 125 g ai/ha, postemergence): 0; Plant response rating, Wheat [15, 19]: 0; Plant response rating, Barnyardgrass [16]: 45; Plant response rating, Ducksalad [17]: 90; Plant response rating, Rice (rice (Oryra sativa)): 0; Plant response rating, Sedge, Umbrella [18]: 0 |
| CN1CC(c2c(F)cccc2F)C(C(=O)Nc2cccc(F)c2F)C1=O (stereo not drawn) [Compound 547] | 0 | 0 | 90 | 90 | 90 | 90 | 0 | 0 | 0 | 70 | 0 | 0 | 20 | 50 | 90 | 0 | 0 | 90 | 0 | 30 | Plant response rating, Galium [7, 20]: 0; Plant response rating, Kochia (Kochia (Kochia scoparia) [8]; [20]): 0; Plant response rating, Barnyardgrass [9, 20]: 70; Plant response rating, Blackgrass [10, 20]: 0; Plant response rating, Corn (corn (Zea mays); [20]): 0; Plant response rating, Foxtail, Giant [11, 20]: 80; Plant response rating, Pigweed [12, 20]: 0; Plant response rating, Ragweed [13, 20]: 0; Plant response rating, Ryegrass, Italian [14, 20]: 0; Plant response rating, Ryegrass, Italian [14, 19]: 0; Plant response rating, Wheat [15, 20]: 0; Plant response rating, Wheat [15, 19]: 0; Plant response rating, Barnyardgrass [16]: 0; Plant response rating, Ducksalad [17]: 0; Plant response rating, Rice (rice (Oryra sativa)): 0; Plant response rating, Sedge, Umbrella [18]: 0 |
| CC(C)Oc1cccc(C2CNC(=O)C2C(=O)Nc2ccccc2F)c1 (stereo not drawn) [Compound 552] | 0 | 70 | 90 | 90 | 90 | 90 | 0 | 0 | 0 | 60 | 20 | 40 | 60 | 30 | 90 | 70 | 50 | 80 | 0 | 20 | Plant response rating, Galium [7, 20]: 40; Plant response rating, Kochia (Kochia (Kochia scoparia) [8]; [20]): 0; Plant response rating, Barnyardgrass [9, 20]: 80; Plant response rating, Blackgrass [10, 20]: 30; Plant response rating, Corn (corn (Zea mays); [20]): 20; Plant response rating, Foxtail, Giant [11, 20]: 70; Plant response rating, Pigweed [12, 20]: 0; Plant response rating, Ragweed [13, 20]: 0; Plant response rating, Ryegrass, Italian [14, 20]: 30; Plant response rating, Ryegrass, Italian [14, 19]: 50; Plant response rating, Wheat [15, 20]: 0; Plant response rating, Wheat [15, 19]: 40; Plant response rating, Barnyardgrass [16]: 60; Plant response rating, Ducksalad [17]: 100; Plant response rating, Rice (rice (Oryra sativa)): 10; Plant response rating, Sedge, Umbrella [18]: 0 |
| O=C1NCC(c2cc(C(F)(F)F)ccc2F)C1C(=O)Nc1cccc(F)c1F (stereo not drawn) [Compound 594] | 0 | 50 | 90 | 90 | 90 | 90 | 0 | 20 | 0 | 20 | 30 | 90 | 20 | 40 | 90 | 60 | 70 | 90 | 40 | 50 | Plant response rating, Galium [7, 20]: 0; Plant response rating, Kochia (Kochia (Kochia scoparia) [8]; [20]): 0; Plant response rating, Barnyardgrass [9, 20]: 90; Plant response rating, Blackgrass [10, 20]: 50; Plant response rating, Corn (corn (Zea mays); [20]): 60; Plant response rating, Foxtail, Giant [11, 20]: 90; Plant response rating, Pigweed [12, 20]: 0; Plant response rating, Ragweed [13, 20]: 0; Plant response rating, Ryegrass, Italian [14, 20]: 20; Plant response rating, Ryegrass, Italian [14, 19]: 30; Plant response rating, Wheat [15, 20]: 30; Plant response rating, Wheat [15, 19]: 70; Plant response rating, Barnyardgrass [16]: 70; Plant response rating, Ducksalad [17]: 90; Plant response rating, Rice (rice (Oryra sativa)): 35; Plant response rating, Sedge, Umbrella [18]: 0 |
